Laboratory results as given in US20050147959A1, “Tissue analogs for in vitro testing and method of use therefor” (priority 2002, published 2005).

Columns and labels:
[1] = test system: cartilage analogs (human nasal septal chondrocytes on microcarriers); experiment: Immunoperoxidase staining for proteoglycans in chondrocytes from cartilage analogs; assay type: cell-based; settings: two days incubation; TGF-β1 10 ng/ml, Ibuprofen 140 μg/ml
Experimental: A preliminary experiment was conducted to analyze the effect of agents such as growth factors (TGF-β1) and non-steroidal anti-inflammatory drugs (NSAIDS; Ibuprofen). Human chondrocytes from donors undergoing nasal septal defect surgery were isolated by enzymatic digestion. The cells were seeded onto microcarriers at approximately 4×10^3 cells/cm^2, and incubated in spinner flasks at 60 rpm and at 37° C. and 5% CO2 until the cells reach confluency at about 14 days. At this point, the chondrocytes produce extracellular matrix-like products consisting of type II collagen, high-molecular-weight proteoglycans and aggrecan. The constructs also start to form microaggregates. These aggregates are referred to here as “cartilage analogs”.
Equivalent aliquots of these analogs were transferred to six 25-ml spinner flasks. Aliquots (5 ml) of control medium (no additive), or medium containing human platelet TGF-β1 (10 ng/ml; Sigma Chemical Co., St. Louis, Mo.) or Ibuprofen (140 μg/ml; Sigma) were added to duplicate flasks. TGF-β1 is a growth factor known to stimulate proteoglycan synthesis in chondrocyte cultures and cartilage explant cultures, while Ibuprofen is an anti-inflammatory drug known to inhibit proteoglycan synthesis. […] The cultures were incubated for two days. […]

[2] = test system: cartilage analogs (human nasal septal chondrocytes on microcarriers); experiment: De novo proteoglycan synthesis by 35S-sulfate incorporation in cartilage analogs cultured in spinner flasks; assay type: cell-based; settings: for sulfate incorporation, cell-associated (non-secreted) fraction, compared to controls: Ibuprofen 140 μg/ml; for de novo proteoglycan synthesis compared to the control (FIG. 8): subsequent study with PPS5, 35S label during last 24 hours of culture
Experimental: A preliminary experiment was conducted to analyze the effect of agents such as growth factors (TGF-β1) and non-steroidal anti-inflammatory drugs (NSAIDS; Ibuprofen). Human chondrocytes from donors undergoing nasal septal defect surgery were isolated by enzymatic digestion. The cells were seeded onto microcarriers at approximately 4×10^3 cells/cm^2, and incubated in spinner flasks at 60 rpm and at 37° C. and 5% CO2 until the cells reach confluency at about 14 days. […] These aggregates are referred to here as “cartilage analogs”.
Equivalent aliquots of these analogs were transferred to six 25-ml spinner flasks. Aliquots (5 ml) of control medium (no additive), or medium containing human platelet TGF-β1 (10 ng/ml; Sigma Chemical Co., St. Louis, Mo.) or Ibuprofen (140 μg/ml; Sigma) were added to duplicate flasks. TGF-β1 is a growth factor known to stimulate proteoglycan synthesis in chondrocyte cultures and cartilage explant cultures, while Ibuprofen is an anti-inflammatory drug known to inhibit proteoglycan synthesis. […] The cultures were incubated for two days. 24 hours prior to terminating the cultures, 300 μCi of ^35S—Na2SO4 (NEN Life Science Products, Boston, Mass.) was added to each flask to measure incorporation into proteoglycans during the last 24 hours of culture.
Following termination of the cultures, cells were pelleted by centrifugation and proteoglycans were extracted from the supernatant medium and the cell fraction with 4 M guanidine HCl for 24 hours at 4° C. Guanidine HCl extracts were dialyzed extensively against deionized class I water using 6,000 Da cut-off dialysis tubing (The Spectrum Companies, Gardena, Calif.). Post-dialysis volumes were measured and triplicate 100 μl samples were counted in a LS-6500 Liquid Scintillation Counter (Beckman Instruments, Inc., Palo Alto, Calif.) using Cytoscint-ES Cocktail (ICN Research Products, Costa Mesa, Calif.). The total ^35SO4 incorporation was expressed as cpm per 10^6 cells. Another set of dialyzed samples were dried on a Speed-Vac (Savant, Inc., Farmingdale, N.Y.) and was then reconstituted in sample buffer consisting of 1% sodium dodecylsulfate, 30% sucrose and 0.025% brophenol blue. The samples were boiled for 5 min and then loaded on an 0.75% agarose gel in electrophoresis buffer. After electrophoresis, the gel was treated with Entensify (NEN Life Science Products), dried and autoradiographed at −70° C.

[3] = preliminary experiment, two days, 35S label during last 24 hours, TGF-β1 10 ng/ml

| Compound | immunostaining for proteoglycans compared to control cells [1] | sulfate incorporation, cell-associated (non-secreted) fraction, compared to controls [2, 3] | de novo proteoglycan synthesis compared to the control (FIG. 8) [2] | sulfate incorporation, media-associated (secreted) fraction, compared to controls [2, 3] |
| --- | --- | --- | --- | --- |
| CC(C)Cc1ccc(C(C)C(=O)O)cc1 (stereo not shown) [Ibuprofen, reference compound] | more faint immunostaining | decreased the cell-associated sulfate incorporation | decreased proteoglycan synthesis |  |
| TGF-β1: human platelet TGF-β1, a growth factor known to stimulate proteoglycan synthesis in chondrocyte cultures | More intense immunostaining | higher sulfate incorporation | enhanced protoglycan synthesis | higher sulfate incorporation |
